pIC50: −log10 of the molar value.
Legend:
[1] = test system: TNF-α production in PBMCs; test: Inhibition of TNF-α production in PBMCs; format: cell-based; conditions: PBMC
Description: The test methods were as described in WO 03/080049; Muller et al., J. Med. Chem., 1996, 39:3238; and Muller et al., Bioorg. Med. Chem. Lett., 1999, 9:1625-30.

[2] = Apremilast Data Pool: weight change; format: in vivo, human
Description: Similar results of weight loss were reported for the Apremilast Data Pool. A weight decrease was reported during the Placebo-controlled Period (24 weeks) in 3 (0.2%) subjects who received placebo and 26 (0.9%) subjects who received apremilast, including 8 (0.8%) subject in the APR 20 BID group, and 18 (1.1%) subjects in the APR 30 BID group.
The end-of-period value is the last postbaseline value (only through the Placebo-controlled Period for placebo-treated subjects) including data up to 28 days after the last dose of investigational product but excluding the observational follow-up visit.
The end-of-period value is the last postbaseline value (while subjects were receiving apremilast), including data up to 28 days after the last dose of apremilast but excluding the observational follow-up visit.

[3] = 20 mg BID, Apremilast-exposure Period
[4] = 20 mg BID, Apremilast-exposure Period, Apremilast Subjects as Treated, m = 1373
[5] = 20 mg BID, Placebo-controlled Period
[6] = 20 mg BID, Placebo-controlled Period, Subjects as Initially Treated at Week 0, m = 900
[7] = 30 mg BID, Apremilast-exposure Period
[8] = 30 mg BID, Apremilast-exposure Period, Apremilast Subjects as Treated, m = 2268
[9] = 30 mg BID, Placebo-controlled Period
[10] = 30 mg BID, Placebo-controlled Period, Subjects as Initially Treated at Week 0, m = 1541
[11] = APR Total, Apremilast-exposure Period, Apremilast Subjects as Treated, m = 3606
[12] = APR Total, Placebo-controlled Period, Subjects as Initially Treated at Week 0, m = 2591

## CCOc1cc([C@@H](CS(C)(=O)=O)N2C(=O)c3cccc(NC(C)=O)c3C2=O)ccc1OC [Apremilast, (+)-2-[1-(3-ethoxy-4-methoxyphenyl)-2-methylsulfonylethyl]-4-acetylaminoisoindoline-1,3-dione]
[1]
  pIC50: 7.11
[2]; [3]
  observed weight loss of greater than 10%, % subjects: 4.0%
  weight decrease reported, subjects n (%): 17 (1.2%) n (%)
[2]; [4]
  Weight % Change Category 0%, n (%): 125 (9.1) n (%)
  Weight % Change Category <−20%, n (%): 2 (0.1) n (%)
  Weight % Change Category >0% to ≦5%, n (%): 410 (29.9) n (%)
  Weight % Change Category >5% to ≦10%, n (%): 56 (4.1) n (%)
  Weight % Change Category >10% to ≦20%, n (%): 18 (1.3) n (%)
  Weight % Change Category >20%, n (%): 0 n (%)
  Weight % Change Category ≧−5% to <0%, n (%): 565 (41.2) n (%)
  Weight % Change Category ≧−10% to <−5%, n (%): 144 (10.5) n (%)
  Weight % Change Category ≧−20% to <−10%, n (%): 53 (3.9) n (%)
[2]; [5]
  observed weight loss of greater than 10%, subjects n (%): 17 (1.9%) n (%)
  percentage of subjects with weight change of >−10% to <−5%: 9.3%
[2]; 20 mg BID, Placebo-controlled Period (24 weeks)
  weight decrease reported, subjects n (%): 8 (0.8%) n (%)
[2]; [6]
  Weight % Change Category 0%, n (%): 101 (11.2) n (%)
  Weight % Change Category <−20%, n (%): 1 (0.1) n (%)
  Weight % Change Category >0% to ≦5%, n (%): 277 (30.8) n (%)
  Weight % Change Category >5% to ≦10%, n (%): 262 (2.9) n (%)
  Weight % Change Category >10% to ≦20%, n (%): 2 (0.2) n (%)
  Weight % Change Category >20%, n (%): 0 n (%)
  Weight % Change Category ≧−5% to <0%, n (%): 393 (43.7) n (%)
  Weight % Change Category ≧−10% to <−5%, n (%): 84 (9.3) n (%)
  Weight % Change Category ≧−20% to <−10%, n (%): 16 (1.8) n (%)
[2]; 20 mg BID, end of the Apremilast-exposure Period
  mean weight change from baseline: -1.09 kg
[2]; 20 mg BID, end of the Placebo-controlled Period, Subjects as Initially Treated at Week 0
  mean weight change from baseline: -1.01 kg
[2]; [7]
  observed weight loss of greater than 10%, % subjects: 4.9%
  weight decrease reported, subjects n (%): 36 (1.5%) n (%)
[2]; [8]
  Weight % Change Category 0%, n (%): 162 (7.1) n (%)
  Weight % Change Category <−20%, n (%): 11 (0.5) n (%)
  Weight % Change Category >0% to ≦5%, n (%): 610 (26.9) n (%)
  Weight % Change Category >5% to ≦10%, n (%): 116 (5.1) n (%)
  Weight % Change Category >10% to ≦20%, n (%): 29 (1.3) n (%)
  Weight % Change Category >20%, n (%): 5 (0.2) n (%)
  Weight % Change Category ≧−5% to <0%, n (%): 923 (40.7) n (%)
  Weight % Change Category ≧−10% to <−5%, n (%): 311 (13.7) n (%)
  Weight % Change Category ≧−20% to <−10%, n (%): 101 (4.5) n (%)
[2]; [9]
  observed weight loss of greater than 10%, subjects n (%): 23 (1.5%) n (%)
  percentage of subjects with weight change of >−10% to <−5%: 11.3%
[2]; 30 mg BID, Placebo-controlled Period (24 weeks)
  weight decrease reported, subjects n (%): 18 (1.1%) n (%)
[2]; [10]
  Weight % Change Category 0%, n (%): 159 (10.3) n (%)
  Weight % Change Category <−20%, n (%): 1 (0.1) n (%)
  Weight % Change Category >0% to ≦5%, n (%): 410 (26.6) n (%)
  Weight % Change Category >5% to ≦10%, n (%): 37 (2.4) n (%)
  Weight % Change Category >10% to ≦20%, n (%): 8 (0.5) n (%)
  Weight % Change Category >20%, n (%): 1 (0.1) n (%)
  Weight % Change Category ≧−5% to <0%, n (%): 729 (47.3) n (%)
  Weight % Change Category ≧−10% to <−5%, n (%): 174 (11.3) n (%)
  Weight % Change Category ≧−20% to <−10%, n (%): 22 (1.4) n (%)
[2]; 30 mg BID, end of the Apremilast-exposure Period
  mean weight change from baseline: -1.41 kg
[2]; 30 mg BID, end of the Placebo-controlled Period, Subjects as Initially Treated at Week 0
  mean weight change from baseline: -1.21 kg
[2]; [11]
  Weight % Change Category 0%, n (%): 325 (8.3) n (%)
  Weight % Change Category <−20%, n (%): 14 (0.4) n (%)
  Weight % Change Category >0% to ≦5%, n (%): 1109 (28.4) n (%)
  Weight % Change Category >5% to ≦10%, n (%): 179 (4.6) n (%)
  Weight % Change Category >10% to ≦20%, n (%): 48 (1.2) n (%)
  Weight % Change Category >20%, n (%): 6 (0.2) n (%)
  Weight % Change Category ≧−5% to <0%, n (%): 1602 (41.0) n (%)
  Weight % Change Category ≧−10% to <−5%, n (%): 466 (11.9) n (%)
  Weight % Change Category ≧−20% to <−10%, n (%): 157 (4.0) n (%)
[2]; [12]
  Weight % Change Category 0%, n (%): 280 (10.8) n (%)
  Weight % Change Category <−20%, n (%): 3 (0.1) n (%)
  Weight % Change Category >0% to ≦5%, n (%): 741 (28.6) n (%)
  Weight % Change Category >5% to ≦10%, n (%): 66 (2.5) n (%)
  Weight % Change Category >10% to ≦20%, n (%): 12 (0.5) n (%)
  Weight % Change Category >20%, n (%): 1 (<0.1) n (%)
  Weight % Change Category ≧−5% to <0%, n (%): 1187 (45.8) n (%)
  Weight % Change Category ≧−10% to <−5%, n (%): 263 (10.2) n (%)
  Weight % Change Category ≧−20% to <−10%, n (%): 38 (1.5) n (%)
[2]; Placebo-controlled Period and Apremilast-exposure Period
  body weight of the majority of subjects: maintained their body weight within 0% and 5% of baseline
[2]; all subjects who received apremilast, Placebo-controlled Period (24 weeks)
  weight decrease reported, subjects n (%): 26 (0.9%) n (%)
